Measured values: PubChem BioAssay AID1996
Converted amounts (≈) assume the structure as drawn.

Conditions: buffer; pH 7.4; 200.0 µM

Row | SMILES | solubility kinetic
1 | Cc1cccc(-c2onc3ccc(C(=O)/C=C/N(C)C)cc23)c1 | 3.3 µg/mL (≈ 10.8 µM)
2 | CCOC(=O)CNC(=O)c1cnc(Nc2ccccc2OC)c2ccccc12 | 5.4 µg/mL (≈ 14.2 µM)
3 | O=C(C[n+]1ccncc1)c1ccccc1.[Br-] | 6.4 µg/mL
4 | Cc1ccc(NC(=O)Nc2cnccn2)c(C)c1 | 2.2 µg/mL (≈ 9.08 µM)
5 | COc1cc([N+](=O)[O-])ccc1NC(=S)NC(=O)CC(C)(C)C | 0.3 µg/mL (≈ 0.922 µM)
6 | CC(NC(=O)c1cccc(Cl)c1)C1CC2CCC1C2 (stereo not drawn) | < 0.6 µg/mL
7 | O=C(COC(=O)c1ccccc1F)NCc1ccc2c(c1)OCO2 | 18.1 µg/mL (≈ 54.6 µM)
8 | Cc1cccc(/N=C/c2ccccn2)n1 | 27.5 µg/mL (≈ 139 µM)
9 | COc1ccc(Br)c(C(=O)OCC(=O)NC(=O)NC2CCCC2)c1 | 19.5 µg/mL (≈ 48.8 µM)
10 | COc1ccc(-c2csc(N)n2)cc1F | 23.8 µg/mL (≈ 106 µM)
11 | CC(=O)N1CCN(CC(=O)Nc2cc(S(=O)(=O)N3CCCCC3)ccc2C)CC1 | > 63.4 µg/mL
12 | O=C(Nc1ccc(Cl)cc1)c1ccc(-c2ccccn2)s1 | < 0.3 µg/mL
13 | C=CCN1C(=O)C(C)(C)N(C(=O)c2cccc([N+](=O)[O-])c2)c2ccccc21 | 23.5 µg/mL (≈ 64.3 µM)
14 | CCOC(=O)C(=O)Nc1ccccc1C(=O)OC | > 37.7 µg/mL
15 | CCOc1ccc(N(C(=O)c2cc3ccccc3oc2=O)C2C=CS(=O)(=O)C2)cc1 (stereo not drawn) | > 63.8 µg/mL
16 | NC1=Nc2cccc3cccc1c23 | 23.2 µg/mL (≈ 138 µM)
17 | COc1ccc(CNC(=O)c2[nH]c(C)c(C(C)=O)c2C)cc1 | > 45.1 µg/mL
18 | C=CCNC(=O)C(C)N1c2cccc3cccc(c23)S1(=O)=O (stereo not drawn) | > 47.5 µg/mL
19 | CCCOC(=O)C1=C(C)N(C)C(=O)NC1c1cc2c(cc1[N+](=O)[O-])OCO2 (stereo not drawn) | 49.4 µg/mL (≈ 131 µM)
20 | CCCCCCn1cc(C(=O)OCC)c(=O)c2cc(F)c(F)cc21 | 43.6 µg/mL (≈ 129 µM)
21 | CC(C)(C)S(=O)(=O)Cc1nc(-c2ccc(Cl)c(Cl)c2)cs1 | < 0.8 µg/mL
22 | CC1(C)C[C@@H]2C[C@@](C)(CN2C(=O)c2ccccc2)C1 | 36.5 µg/mL (≈ 142 µM)
23 | CC(=O)Oc1ccccc1-n1c(C)nc(=O)c(-c2ccccc2)c1C | 48.9 µg/mL (≈ 146 µM)
24 | Nc1cccc(S(=O)(=O)Nc2ccc(Br)cc2)c1 | > 49.1 µg/mL

Row | SMILES | solubility kinetic
25 | COc1ccc(Nc2nc(Cl)c(C=O)s2)cc1 | 11.1 µg/mL (≈ 41.3 µM)
26 | CC(C)(C)c1ccc(C(=O)NCCC(=O)N2CCCC2)cc1 | > 45.4 µg/mL
27 | CC(C)(C)N(Cc1ccccc1)C(=O)CN1C(=O)c2ccccc2C1=O | 0.8 µg/mL (≈ 2.28 µM)
28 | O=c1c2ccccc2ncn1-c1ccccc1[N+](=O)[O-] | 35.9 µg/mL (≈ 134 µM)
29 | OC1=C(O)c2nc3cc(C(F)(F)F)ccc3nc21 | > 38.1 µg/mL
30 | Cc1cnc(NC(=O)c2ccc(Cl)nc2)s1 | 6.6 µg/mL (≈ 26 µM)
31 | CS(=O)(=O)c1ccc(Cl)c(C(=O)NCC2CCCCC2)c1 | > 49.5 µg/mL
32 | O=C(OCc1cccc([N+](=O)[O-])c1)c1cc(=O)[nH]c2ccccc12 | < 0.3 µg/mL
33 | Cc1cccc(C)c1N1CCN(S(=O)(=O)c2ccccc2)CC1 | < 0.4 µg/mL
34 | COc1ccc(Cl)cc1C(=O)O/N=C(\N)c1ccncc1 | 32.5 µg/mL (≈ 106 µM)
35 | CS(=O)(=O)N1CCCC(C(=O)Nc2c(F)cccc2F)C1 (stereo not drawn) | > 47.8 µg/mL
36 | O=C(CN1CCCCC1)N1CCN(c2ccccc2)CC1 | > 43.1 µg/mL
37 | CC(C)(C)C(=O)CN1C(=O)NC2(CCc3ccccc32)C1=O (stereo not drawn) | > 45.1 µg/mL
38 | O=C(/C=C/c1cccnc1)c1ccc(F)c(F)c1 | 27.8 µg/mL (≈ 113 µM)
39 | O=C(Nc1ccccc1Oc1ccccc1)c1cccs1 | 15.2 µg/mL (≈ 51.5 µM)
40 | O=c1c2ccccc2nc(CNCC2CCCO2)n1-c1ccc(F)cc1 (stereo not drawn) | 44.9 µg/mL (≈ 127 µM)
41 | Cc1ccc(C)c(NC(=O)Cn2cc(C(=O)C3CC3)c3ccccc32)c1 | < 0.4 µg/mL
42 | COCCNC(=O)C(NC(=O)C1CCCCC1)C12CC3CC(CC(C3)C1)C2 (stereo not drawn) | 5.5 µg/mL (≈ 14.6 µM)
43 | Cn1c2ccc(F)cc2c2ncn(Cc3ccccn3)c(=O)c21 | 7.9 µg/mL (≈ 25.6 µM)
44 | CCc1ccc(NC(=O)Nc2ccon2)cc1 | > 34.7 µg/mL
45 | S=C(Nc1nc2c(s1)CCCC2)NC1CC1 | 5.7 µg/mL (≈ 22.5 µM)
46 | Cc1ccc(C(=O)N2CCN(c3ccc([N+](=O)[O-])cc3)CC2)o1 | 40.2 µg/mL (≈ 127 µM)
47 | O=C(CN1CCCC1)Nc1ccccc1C(=O)c1ccccc1 | 44 µg/mL (≈ 143 µM)
48 | CC(=O)NCCc1nc2ccccc2n1Cc1cc(C)ccc1C | > 48.2 µg/mL

Row | SMILES | solubility kinetic
49 | Cc1nc2ccccc2n1CC(O)c1ccccc1 (stereo not drawn) | 33.9 µg/mL (≈ 134 µM)
50 | Cc1ccc(N(CC(=O)Nc2c(C)cccc2C)S(C)(=O)=O)cc1 | 35.1 µg/mL (≈ 101 µM)
51 | CCN(c1ccccc1)S(=O)(=O)c1ccc(C(=O)NCc2ccco2)cc1 | 32 µg/mL (≈ 83.2 µM)
52 | COCCCn1c(SCC(=O)c2ccccc2)nc2ccccc2c1=O | 1.1 µg/mL (≈ 2.99 µM)
53 | COCCNC(=O)Nc1ccc(F)cc1 | > 31.8 µg/mL
54 | N#CC(c1nc2ccccc2nc1N1CCOCC1)S(=O)(=O)c1ccccc1 (stereo not drawn) | > 59.2 µg/mL
55 | N#CCCC1CCCC=C1N(Cc1ccccc1)C(=O)C(Cl)Cl (stereo not drawn) | > 52.7 µg/mL
56 | COc1ccc(OCC(O)CNC(=O)Nc2cc(C)cc(C)c2)cc1 (stereo not drawn) | 3.8 µg/mL (≈ 11 µM)
57 | O=C(c1c(F)cccc1F)N1CCCC1 | > 31.7 µg/mL
58 | Cc1cc(C)nc(SCc2cn3c(C)cccc3n2)n1 | 37.9 µg/mL (≈ 133 µM)
59 | COc1ccc(-n2ccc(=O)c(C(=O)O)n2)cc1 | > 36.9 µg/mL
60 | Cc1nc2ccc(NC(=O)c3ccc([N+](=O)[O-])cc3)cc2[nH]1 | 30.6 µg/mL (≈ 103 µM)
61 | Cc1cc(C(=O)NC2CCCC(C)C2C)c2ccccc2n1 (stereo not drawn) | 18.9 µg/mL (≈ 63.8 µM)
62 | O=[N+]([O-])c1cccnc1N1CCN(c2ccc(F)cc2)CC1 | 12.1 µg/mL (≈ 40 µM)
63 | COc1ccc(CC(C)NCCC(c2ccccc2)c2ccccc2)cc1 (stereo not drawn) | 47.1 µg/mL (≈ 131 µM)
64 | COc1ccc(CCNC(=O)c2csc3c2CCCC3)cc1OC | > 51.8 µg/mL
65 | NC(=O)CN1CCN(c2cccc(Cl)c2)CC1 | 33.9 µg/mL (≈ 134 µM)
66 | C=C(C)CN1CCN(c2ccc(N3C(=O)CCCC3=O)cc2[N+](=O)[O-])CC1 | 54 µg/mL (≈ 145 µM)
67 | CC1CCC(NC(=O)c2cc3ccccc3cc2O)CC1 (stereo not drawn) | 4.3 µg/mL (≈ 15.2 µM)
68 | CC1(C)OC(=O)C(=CNc2ccccn2)C(=O)O1 | 28.5 µg/mL (≈ 115 µM)
69 | COC(=O)c1ccc(C(=S)N2CCCCC2)cc1 | > 39.5 µg/mL
70 | O=[N+]([O-])c1cccnc1SCc1ccccc1 | 0.3 µg/mL (≈ 1.22 µM)
71 | N#Cc1ccccc1OCC(=O)NNC(=O)c1ccncc1 | > 44.4 µg/mL
72 | COCCn1c(C)cc(O)c(C(=O)Nc2cccc(Cl)c2)c1=O | < 0.4 µg/mL

Row | SMILES | solubility kinetic
73 | CC(C)(CC(=O)O)CC(=O)Nc1cc(C(F)(F)F)cc(C(F)(F)F)c1 | 46.1 µg/mL (≈ 124 µM)
74 | CSc1nc(C)nc(N/C=C(\C#N)S(=O)(=O)c2ccccc2Cl)n1 | 15.6 µg/mL (≈ 40.9 µM)
75 | O=C(Nc1ccc(CN2CCOCC2)cc1)c1ccc(Cl)cc1 | 9.2 µg/mL (≈ 27.8 µM)
76 | CN(C)c1ccc(C(CN)c2c[nH]c3ccccc23)cc1 (stereo not drawn) | 30.2 µg/mL (≈ 108 µM)
77 | CCc1ccc(C(=O)NNC(=O)[C@H](C)NC(=O)c2ccco2)cc1 | > 49.4 µg/mL
78 | COc1ccc(NC2CCCN(C(=O)c3cccnc3)C2)cc1 (stereo not drawn) | > 46.7 µg/mL
79 | CC(C)C(=O)Nc1nc(-c2ccc([N+](=O)[O-])cc2)cs1 | 2.6 µg/mL (≈ 8.92 µM)
80 | O=C(NC(=S)NC1CCCCC1)c1ccccc1[N+](=O)[O-] | 3 µg/mL (≈ 9.76 µM)
81 | CC(C)c1ccc(S(=O)(=O)N2CCN(C(=O)CN3C(=O)c4ccccc4C3=O)CC2)cc1 | 3.1 µg/mL (≈ 6.81 µM)
82 | CNC(=S)N1CCC(NC(=O)c2ccco2)CC1 | > 40.1 µg/mL
83 | Cc1ccc(Nc2ccccc2N)cc1 | 23.1 µg/mL (≈ 117 µM)
84 | CC(=O)N=c1c(C#N)cc2c(=O)n3cccc(C)c3nc2n1Cc1ccco1 | 5.1 µg/mL (≈ 13.7 µM)
85 | O=C(CSc1ccccc1F)NCC(c1cccs1)N1CCOCC1 (stereo not drawn) | > 57.1 µg/mL
86 | O=c1oc2ccccc2nc1/C=C(\O)c1ccccc1 | 21.4 µg/mL (≈ 80.7 µM)
87 | Cc1cc2ccccn2c1C(=O)c1ccc(S(=O)(=O)N(C)C)cc1 | 1.1 µg/mL (≈ 3.21 µM)
88 | COc1ccc2oc(C(=O)NCCC(C)C)c(C)c2c1 | 1.8 µg/mL (≈ 6.54 µM)
89 | CCCNC(=O)N1CCC(c2ccc3c(c2)OCO3)CC1 | 38.8 µg/mL (≈ 134 µM)
90 | Nc1nc(-c2cccs2)c(-c2cccs2)s1 | 5.8 µg/mL (≈ 21.9 µM)
91 | CC(C)(C)OC(=O)N1CCC[C@H]1C(=O)Nc1ccc(C#N)cc1 | 40.7 µg/mL (≈ 129 µM)
92 | O=C(Nc1cc(C(F)(F)F)ccc1N1CCOCC1)C1CCCO1 (stereo not drawn) | > 51.6 µg/mL
93 | O=C(Nc1cccc([N+](=O)[O-])c1)NC1CCCCCCC1 | 3.8 µg/mL (≈ 13 µM)
94 | Nc1nc(NCCCN2CCOCC2)nc(Nc2cccc(F)c2)c1[N+](=O)[O-] | 6.3 µg/mL (≈ 16.1 µM)
95 | Cc1ccc(C(=O)COc2nc(C)nc3ccccc23)cc1 | 4.3 µg/mL (≈ 14.7 µM)
96 | Cc1noc(C)c1C(=O)NC(Cc1c[nH]c2ccccc12)C(=O)O (stereo not drawn) | > 49.1 µg/mL

Row | SMILES | solubility kinetic
97 | Cc1cc(N2CCOCC2)nc2ccc(NC(=S)N3CCCCC3C)cc12 (stereo not drawn) | 41.5 µg/mL (≈ 108 µM)
98 | CC1(C)C(C#N)=C(N)Oc2c1c(=O)oc1ccccc21 | 1.1 µg/mL (≈ 4.1 µM)
99 | COc1ccc(NC2CC(=O)N(c3cc([N+](=O)[O-])ccc3C)C2=O)cc1 (stereo not drawn) | > 53.3 µg/mL
100 | O=C(c1cc2cc(Cl)ccc2oc1=O)N1CCCCCCC1 | 7.6 µg/mL (≈ 23.8 µM)
101 | COc1ccc(N2CC(C(=O)Nc3cc(C)ccn3)CC2=O)cc1 (stereo not drawn) | > 48.8 µg/mL
102 | N#CCNC(=O)C1CC(=O)N(CCc2ccc(F)cc2)C1 (stereo not drawn) | 39.7 µg/mL (≈ 137 µM)
103 | Cc1cccc(C(=O)OCCN2CCOCC2)c1.Cl | > 42.9 µg/mL
104 | Cc1nn(C)c(=O)n1-c1ccccc1 | > 28.4 µg/mL
105 | COC(=O)[C@H](CC(C)C)NC(=O)Nc1ccccc1F | > 42.3 µg/mL
106 | CC(=O)Oc1ccc(C(=O)Nc2cccnc2)cc1 | > 38.4 µg/mL
107 | CN(C(=O)c1ccc(Br)cc1)C1CCS(=O)(=O)C1 (stereo not drawn) | > 49.8 µg/mL
108 | COc1ccc(Cl)cc1NC(=O)COC(=O)C1CC1 | 34.4 µg/mL (≈ 121 µM)
109 | O=C(OCc1cncs1)c1cccs1 | > 33.8 µg/mL
110 | COc1ccc(Cl)cc1NC(=O)NCc1ccccn1 | 41.6 µg/mL (≈ 143 µM)
111 | CCc1cccc(NC(=O)C2CCN(c3ncnc4sc(C)c(C)c34)CC2)c1 | 2.7 µg/mL (≈ 6.84 µM)
112 | CC(=O)N(C1=NCCCS1)c1ccccc1Cl | > 40.3 µg/mL
113 | Cn1c(=O)c2c(O)c(C=NCc3ccccc3)c(=O)n(C)c2n(C)c1=O | 51.3 µg/mL (≈ 145 µM)
114 | CCN(CC)CCN(C(=O)c1cc2ccccc2cc1OC)c1nc2ccc(OC)cc2s1.Cl | 3.7 µg/mL
115 | O=C(COc1ccccc1)Nc1nc2c(s1)CCCC2 | 3.7 µg/mL (≈ 12.8 µM)
116 | Cc1nccc(-c2ccc(-n3c(C)ccc3C)cc2)n1 | 33 µg/mL (≈ 125 µM)
117 | Cc1ccc(OCCNCc2ccccc2)c(C)c1.O=C(O)C(=O)O | 45.8 µg/mL
118 | O=C(Nc1cc(Cl)cc(Cl)c1)c1coc(=O)c(Br)c1 | 5.1 µg/mL (≈ 14 µM)
